Measured values as given in patent US11214803B2, “Modulators of YAP1 expression” (Ionis Pharmaceuticals, Inc., priority 2019, dated 2022).
Strand notation (5' to 3'): a small letter for the sugar, then the base; units joined by * are phosphorothioate-linked, units joined directly phosphodiester-linked; [ ] holds rarer units or linkages, { } end groups; capitals alone tell only the bases. k = constrained ethyl (cEt); [5mC] = 5-methylcytosine; d = 2'-deoxy (DNA)

Test system: Yap1 mRNA
Assay: Dose-dependent inhibition of human Yap1 in A-431 cells (Example 7, 10,000 cells per well, RTS36584)
Assay type: cell-based
Settings: free uptake
Outline: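 A-431 cells at 10,000 per well received modified oligonucleotides by free uptake at several doses. After about 48 hours, Yap1 mRNA was quantified with primer-probe set RTS36584, normalized to RIBOGREEN total RNA and expressed as % untreated control. IC50 came from linear regression on a log/linear plot.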

[1] = Table 57, 15.6 nM, A-431 cells 10,000 cells per well, 48 hours
[2] = Table 57, 62.5 nM, A-431 cells 10,000 cells per well, 48 hours
[3] = Table 57, 4000.00 nM, A-431 cells 10,000 cells per well, 48 hours
[4] = Table 57, A-431 cells 10,000 cells per well
[5] = 15.6 nM, A-431 cells, 10,000 cells per well, approximately 48 hours
[6] = 62.5 nM, A-431 cells, 10,000 cells per well, approximately 48 hours
[7] = 4000.00 nM, A-431 cells, 10,000 cells per well, approximately 48 hours
[8] = A-431 cells, approximately 48 hours, linear regression on log/linear plot
[9] = Table 60, 15.6 nM, A-431 cells 10,000 cells per well, 48 hours
[10] = Table 60, 62.5 nM, A-431 cells 10,000 cells per well, 48 hours
[11] = Table 60, 4000.00 nM, A-431 cells 10,000 cells per well, 48 hours
[12] = Table 60, A-431 cells 10,000 cells per well
[13] = Table 56, 15.6 nM, A-431 cells 10,000 cells per well, 48 hours
[14] = Table 56, 62.5 nM, A-431 cells 10,000 cells per well, 48 hours
[15] = Table 56, 4000.00 nM, A-431 cells 10,000 cells per well, 48 hours
[16] = Table 56, A-431 cells 10,000 cells per well
[17] = Table 58, 15.6 nM, A-431 cells 10,000 cells per well, 48 hours
[18] = Table 58, 62.5 nM, A-431 cells 10,000 cells per well, 48 hours
[19] = Table 58, 4000.00 nM, A-431 cells 10,000 cells per well, 48 hours
[20] = Table 58, A-431 cells 10,000 cells per well
[21] = Table 59, 15.6 nM, A-431 cells 10,000 cells per well, 48 hours
[22] = Table 59, 62.5 nM, A-431 cells 10,000 cells per well, 48 hours
[23] = Table 59, 4000.00 nM, A-431 cells 10,000 cells per well, 48 hours
[24] = Table 59, A-431 cells 10,000 cells per well

958616 (kG*kG*kT*dG*dG*dT*d[5mC]*dT*dT*dG*dT*dT*d[5mC]*kT*kT*kA; antisense) [compound 958616]
Yap1 mRNA, % UTC [1]: 78 % UTC
Yap1 mRNA, % UTC [2]: 49 % UTC
Yap1 mRNA, % UTC [3]: 17 % UTC
IC50 [4]: 100 nM

958545 (kA*k[5mC]*kT*d[5mC]*dT*dA*dG*dT*dT*dA*d[5mC]*dA*dT*k[5mC]*kA*kT; antisense) [compound 958545]
Yap1 mRNA, % UTC [5]: 75 % UTC
Yap1 mRNA, % UTC [6]: 50 % UTC
Yap1 mRNA, % UTC [7]: 8 % UTC
IC50 [8]: 100 nM

958541 (kG*kT*kA*dT*dT*d[5mC]*dT*dA*dT*d[5mC]*d[5mC]*dA*dG*kG*kG*kT; antisense) [compound 958541]
Yap1 mRNA, % UTC [1]: 81 % UTC
Yap1 mRNA, % UTC [2]: 51 % UTC
Yap1 mRNA, % UTC [3]: 9 % UTC
IC50 [4]: 100 nM

958718 (kG*kA*kA*d[5mC]*dA*d[5mC]*dT*dA*dT*dA*dG*d[5mC]*dT*kT*kG*kG; antisense) [compound 958718]
Yap1 mRNA, % UTC [9]: 104 % UTC
Yap1 mRNA, % UTC [10]: 80 % UTC
Yap1 mRNA, % UTC [11]: 24 % UTC
IC50 [12]: 200 nM

958403 (antisense k[5mC]*kA*kG*dT*dT*dT*dA*dT*dG*dT*dA*dG*dT*kA*kG*kT) [compound 958403]
Yap1 mRNA, % UTC [13]: 94 % UTC
Yap1 mRNA, % UTC [14]: 63 % UTC
Yap1 mRNA, % UTC [15]: 12 % UTC
IC50 [16]: 120 nM

958466 (kG*kT*k[5mC]*dA*dT*dT*dA*dA*dG*dG*dA*dT*dG*kT*k[5mC]*kA; antisense) [compound 958466]
Yap1 mRNA, % UTC [1]: 84 % UTC
Yap1 mRNA, % UTC [2]: 81 % UTC
Yap1 mRNA, % UTC [3]: 30 % UTC
IC50 [4]: 300 nM

958686 (k[5mC]*kG*k[5mC]*dA*dA*dT*dA*dT*dA*dG*dT*d[5mC]*dT*kA*kT*kA; antisense) [compound 958686]
Yap1 mRNA, % UTC [1]: 75 % UTC
Yap1 mRNA, % UTC [2]: 69 % UTC
Yap1 mRNA, % UTC [3]: 18 % UTC
IC50 [4]: 100 nM

958795 (kT*kA*kT*dT*d[5mC]*d[5mC]*dG*d[5mC]*dA*dT*dT*dG*d[5mC]*k[5mC]*kT*kA; antisense) [compound 958795]
Yap1 mRNA, % UTC [5]: 90 % UTC
Yap1 mRNA, % UTC [6]: 69 % UTC
Yap1 mRNA, % UTC [7]: 20 % UTC
IC50 [8]: 200 nM

958567 (kT*k[5mC]*kA*dA*d[5mC]*d[5mC]*dT*dA*dT*dG*dA*dA*d[5mC]*kT*kA*kT; antisense) [compound 958567]
Yap1 mRNA, % UTC [17]: 99 % UTC
Yap1 mRNA, % UTC [18]: 80 % UTC
Yap1 mRNA, % UTC [19]: 16 % UTC
IC50 [20]: 200 nM

958813 (kT*kT*kA*d[5mC]*dA*dG*dA*dG*dA*dG*dA*dT*dT*k[5mC]*kA*kT; antisense) [compound 958813]
Yap1 mRNA, % UTC [9]: 81 % UTC
Yap1 mRNA, % UTC [10]: 79 % UTC
Yap1 mRNA, % UTC [11]: 29 % UTC
IC50 [12]: 200 nM

958369 (antisense kT*kT*kA*dT*d[5mC]*dT*dA*dG*d[5mC]*dT*dT*dG*dG*kT*kG*kG) [compound 958369]
Yap1 mRNA, % UTC [13]: 107 % UTC
Yap1 mRNA, % UTC [14]: 68 % UTC
Yap1 mRNA, % UTC [15]: 17 % UTC
IC50 [16]: 170 nM

958588 (kG*kT*kG*dT*dA*d[5mC]*dT*dT*dA*dG*dG*dT*dG*kA*k[5mC]*kT; antisense) [compound 958588]
Yap1 mRNA, % UTC [9]: 93 % UTC
Yap1 mRNA, % UTC [10]: 73 % UTC
Yap1 mRNA, % UTC [11]: 27 % UTC
IC50 [12]: 200 nM

958623 (kT*kT*kG*dA*dT*dA*dT*dT*d[5mC]*d[5mC]*dG*d[5mC]*dA*kT*kT*kG; antisense) [compound 958623]
Yap1 mRNA, % UTC [21]: 100 % UTC
Yap1 mRNA, % UTC [22]: 62 % UTC
Yap1 mRNA, % UTC [23]: 10 % UTC
IC50 [24]: 100 nM

958734 (kA*k[5mC]*kA*d[5mC]*dA*dT*dA*dG*dA*dG*d[5mC]*dT*dA*kA*kG*kG; antisense) [compound 958734]
Yap1 mRNA, % UTC [5]: 87 % UTC
Yap1 mRNA, % UTC [6]: 65 % UTC
Yap1 mRNA, % UTC [7]: 15 % UTC
IC50 [8]: 100 nM

958536 (kA*kG*kG*dG*dT*d[5mC]*dA*dA*dT*dT*dT*dT*d[5mC]*kA*kG*k[5mC]; antisense) [compound 958536]
Yap1 mRNA, % UTC [13]: 94 % UTC
Yap1 mRNA, % UTC [14]: 67 % UTC
Yap1 mRNA, % UTC [15]: 16 % UTC
IC50 [16]: 140 nM

958570 (kT*kG*kT*dA*dA*dT*dT*d[5mC]*dA*dT*dA*dT*dA*k[5mC]*k[5mC]*k[5mC]; antisense) [compound 958570]
Yap1 mRNA, % UTC [5]: 93 % UTC
Yap1 mRNA, % UTC [6]: 60 % UTC
Yap1 mRNA, % UTC [7]: 17 % UTC
IC50 [8]: 100 nM

958737 (kG*kG*kA*dA*dT*dA*d[5mC]*dA*dA*dG*d[5mC]*d[5mC]*d[5mC]*kG*kA*kG; antisense) [compound 958737]
Yap1 mRNA, % UTC [21]: 104 % UTC
Yap1 mRNA, % UTC [22]: 92 % UTC
Yap1 mRNA, % UTC [23]: 29 % UTC
IC50 [24]: 400 nM

958556 (k[5mC]*kA*kA*d[5mC]*d[5mC]*dA*dA*d[5mC]*dT*dA*dT*dT*dA*k[5mC]*kT*kT; antisense) [compound 958556]
Yap1 mRNA, % UTC [1]: 103 % UTC
Yap1 mRNA, % UTC [2]: 95 % UTC
Yap1 mRNA, % UTC [3]: 34 % UTC
IC50 [4]: 500 nM

958658 (kA*k[5mC]*kA*dG*dT*dA*dT*dA*dA*dT*dA*dT*d[5mC]*k[5mC]*kT*kA; antisense) [compound 958658]
Yap1 mRNA, % UTC [9]: 90 % UTC
Yap1 mRNA, % UTC [10]: 88 % UTC
Yap1 mRNA, % UTC [11]: 29 % UTC
IC50 [12]: 400 nM

958593 (kG*kG*kT*d[5mC]*dA*dG*dT*dA*d[5mC]*dA*dG*dA*dG*kG*kG*k[5mC]; antisense) [compound 958593]
Yap1 mRNA, % UTC [9]: 99 % UTC
Yap1 mRNA, % UTC [10]: 60 % UTC
Yap1 mRNA, % UTC [11]: 15 % UTC
IC50 [12]: 100 nM

958537 (k[5mC]*kA*kG*dG*dG*dT*d[5mC]*dA*dA*dT*dT*dT*dT*k[5mC]*kA*kG; antisense) [compound 958537]
Yap1 mRNA, % UTC [17]: 100 % UTC
Yap1 mRNA, % UTC [18]: 56 % UTC
Yap1 mRNA, % UTC [19]: 11 % UTC
IC50 [20]: 100 nM

958615 (kT*kG*kG*dT*d[5mC]*dT*dT*dG*dT*dT*d[5mC]*dT*dT*kA*kT*kG; antisense) [compound 958615]
Yap1 mRNA, % UTC [5]: 91 % UTC
Yap1 mRNA, % UTC [6]: 60 % UTC
Yap1 mRNA, % UTC [7]: 18 % UTC
IC50 [8]: 100 nM

958585 (k[5mC]*kT*k[5mC]*dT*dA*dT*d[5mC]*dA*dA*dG*dG*dT*d[5mC]*k[5mC]*k[5mC]*k[5mC]; antisense) [compound 958585]
Yap1 mRNA, % UTC [5]: 95 % UTC
Yap1 mRNA, % UTC [6]: 71 % UTC
Yap1 mRNA, % UTC [7]: 17 % UTC
IC50 [8]: 200 nM

958529 (k[5mC]*kA*kA*dG*dT*d[5mC]*dT*dT*dG*dT*dA*dA*dG*kT*kA*kA; antisense) [compound 958529]
Yap1 mRNA, % UTC (Table 61, 15.6 nM, A-431 cells 10,000 cells per well, 48 hours): 103 % UTC
Yap1 mRNA, % UTC (Table 61, 62.5 nM, A-431 cells 10,000 cells per well, 48 hours): 64 % UTC
Yap1 mRNA, % UTC (Table 61, 4000.00 nM, A-431 cells 10,000 cells per well, 48 hours): 11 % UTC
IC50 (Table 61, A-431 cells 10,000 cells per well): 100 nM

958490 (kG*kT*kG*dA*d[5mC]*dA*dT*dG*dA*dA*dG*d[5mC]*dA*kT*k[5mC]*kT; antisense) [compound 958490]
Yap1 mRNA, % UTC [5]: 81 % UTC
Yap1 mRNA, % UTC [6]: 54 % UTC
Yap1 mRNA, % UTC [7]: 13 % UTC
IC50 [8]: 100 nM

958518 (k[5mC]*k[5mC]*kA*d[5mC]*dA*dG*dT*dA*dA*dT*dA*dG*d[5mC]*kT*k[5mC]*kT; antisense) [compound 958518]
Yap1 mRNA, % UTC [21]: 95 % UTC
Yap1 mRNA, % UTC [22]: 55 % UTC
Yap1 mRNA, % UTC [23]: 4 % UTC
IC50 [24]: 100 nM

958538 (kA*kT*k[5mC]*d[5mC]*dA*dG*dG*dG*dT*d[5mC]*dA*dA*dT*kT*kT*kT; antisense) [compound 958538]
Yap1 mRNA, % UTC [9]: 101 % UTC
Yap1 mRNA, % UTC [10]: 77 % UTC
Yap1 mRNA, % UTC [11]: 30 % UTC
IC50 [12]: 300 nM

958486 (kT*kT*kA*dG*dA*dG*d[5mC]*d[5mC]*dA*dA*d[5mC]*dT*dG*kT*kG*kA; antisense) [compound 958486]
Yap1 mRNA, % UTC [1]: 87 % UTC
Yap1 mRNA, % UTC [2]: 73 % UTC
Yap1 mRNA, % UTC [3]: 22 % UTC
IC50 [4]: 200 nM

958485 (kA*kG*kA*dG*dG*dT*d[5mC]*dA*dG*d[5mC]*dA*dA*dT*kA*k[5mC]*kA; antisense) [compound 958485]
Yap1 mRNA, % UTC [5]: 68 % UTC
Yap1 mRNA, % UTC [6]: 38 % UTC
Yap1 mRNA, % UTC [7]: 8 % UTC
IC50 [8]: 40 nM
